According to US7384657B2, “Composition of natural herb extract for treating cardiovascular disease and its method of preparation thereof” (priority 2004, dated 2008):
Entries after “also recorded” stand apart in the source; their conditions may differ.

Key:
solubility = test: solubility
Experimental: Matrine is also called matricaria. Its molecular formula is C15H24N2O and its molecular weight is 248.36. It has four isomers: α, β, γ, and δ isomers. α-matrine is the one commonly seen. It is a needle or rhombohedral crystal, having a melting point 76° C. and [α]D+39.1° (H2O).
Oxymatrine has a molecular formula C15H24N2O2 and a molecular weight 264.36. It is a colorless columnar crystal (Me2CO), melting point 162° C. (hydrate), 207° C. (anhydrate), [α]D+47.7° (C2H5OH). […] It can change to matrine through reaction with SO2.

[1] = tested on: isolated guinea pig's right and left atrium; test: isolated guinea pig's atria
Source text: The effect of alkaloids on heart function is studied. […] Furthermore, it presents dosage dependent relation. The function of its negative frequency, positive inotropic action and negative maximum driving force (MDF) appears to be linear correlation. Matrine is able to inhibit the aconitine to induce the rats's left atrial automatic rhythmicity effect, or, prolong the aconitine to induce the latent period's auto-rhythmicity or slow down its initial frequency. Also, it is able to heighten the ouabin to induce the guinea pig's right atrial arrhythmia and the adrenal gland injection to induce the auto-consistency of guinea pig's left atrium. Moreover, it has the enhancement effect on the positive inotropic action of ouabin.
In fact, all of them are dosage dependence relation. […] It clearly prolongs inducement of the latent period of auto-rhythmicity and slows down the inducement of auto-rhythmicity's initial frequency. It is also able to raise ouabin to induce the isolated guinea pig's right atrial arrhythmia and the adrenal gland inducing the isolated guinea pig's left atrial auto-rhythmicity's consistency.

[2] = intramuscular matrine crystal in dog
Experimental: Intramuscular injection of matrine crystal 200 mg/kg given to the dog. […] Dog is administrated with daily intramuscular injection 0.5 g. […] 1-3 treatment courses are carried out altogether.

[3] = intravenous matrine injection in cat; format: in vivo; settings: 1 mg/kg i.v.
Source text: The curative effect of matrine upon the premature heartbeat, caused by various reasons, is relatively better. It is partially effective on the supraventricular arrhythmia. In clinical study, matrine's tablet is employed to treat 167 cases of arrhythmia.

[4] = tested on: isolated rats's right atrium; test: isolated rats's right atrium
Source text: (§1) It is antagonistic to the acceleration of heart rate induced by isopropylnoradrenaline.

[5] = pharmacokinetics of oxymatrine and matrine in mice; settings: mouse, in vivo
[6] = intravenous matrine in rats: arrhythmia and ECG; format: in vivo
Source text: as §1

[7] = subcutaneous injection; cited from earlier work
[8] = puerarin aglycone, left ventricular function index; format: in vivo; settings: dog
Source text: Study proves puerarin is able to mitigate the angina pectoris, contracted, remarkably and improve the ischemic electrocardiogram. It reduces the myocardial oxygen consumption. Puerarin can slow down the rate of the heart pulsation and enhance the myocardial systolic power. […] Puerarin is able to outstandingly reduce the tension-time index (TTI) and the ascending rate of the left ventricular pressure. The effect of puerarin on ischemic myocardium is reducing the resistance of the coronary artery's lateral branch. Puerarin is able to mitigate clearly the PG angina pectoris and improve the ischemic electrocardiogram. […] It enables the reduction of coronary artery's resistance and the increase of coronary artery's flow volume. Thus, it is advantageous to the improvement of balance of supply and need. And also, it has the obvious effect on resisting the arrhythmia.

[9] = Tanshinone bile excretion and intrahepatic transformation; format: in vivo, rats
Experimental: The experimental animal is male rats each weighs 350-400 g. Intraperitoneal anesthesia with 10% of 1 g/kg malarin is employed. Insert it into the common bile duct with infantile scalp needle. After it is fixed, collect bile, for 1 hour quantity, to be used as blank contrast. Small amount of dimethyl formamide added to the medicine. And then, 1% carboxymethyl cellulose is diluted to 10 mg/ml. Administer to the duodenum and followed by scheduled fixed quantity of bile collection. The bile stays overnight in the fridge. Abstract twice with chloroform and combine with chloroform liquid. Conduct water bath and dry it by evaporation. Keep it in the desiccators. Before the test, fixed quantity dilution is conducted by using 50 ml chloroform and followed by high pressure liquid's separation and fixation of quantity. The change of Tanshinone in the liver hemogenate: After a larger male […], weighs 160 g, is anesthetized, its liver is taken and weighed. Use 0.15M potassium chloride and 0.24M amide to manufacture hemogenate. Use double-deck gauze for filtrating. Again, with the above-mentioned solution, dilute the filtrate to every 10 ml which equals to the 6 g weight of the liver tissue. Add 4 ml of pH 7.4 phosphoric buffer solution and 2 ml liver hemogenate to the 100 ml conical flask. 1 mg specimen of Tanshinone dissolves in 95% of 0.2 ml ethanol. 0.2 ml of 95% ethanol liquid, which contains no tashinone, is added to the control group. Keep it warm at 37° C. for 2 hours. When the reaction ceases, use 12 ml chloroform to extract twice separately. Merge with the extract, and conduct water bath and dry it by evaporation. Before the test, the specimen is dissolved with 100 ml chloroform. Use the thin layer for separating and quantity fixing [silica-CMC thin layer; developer is benzene-acetone (95:5)]. […] The peak of excretion takes place in about 3 hours after the administration. […] Quantity of Tanshinone IIA in the bile excretion from animal of such group is 5 to 10 times higher than the Tanshinone IIA group. […]

## Matrine
solubility
  solubility: soluble in water, benzene, chloroform, ether and carbon sulfide and nearly insoluble in petroleum ether
[1]
  left atrial maximum driving force (MDF): reduces the left atrial maximum driving force
  right atrial systolic power: increases the right atrial systolic power
[1]; 3 μmol/L
  aconitine-induced left atria automatic rhythmicity: significantly inhibits
[1]; dosage dependent
  automatic frequency of right atrium: slow down the automatic frequency of guinea pig's right atrium; also recorded: obvious negative frequency effect
[2]; 200 mg/kg intramuscular, 6 hours of observation
  abnormal phenomenon: no abnormal phenomenon except slightly being quiet
[2]; 0.5 g daily intramuscular, 14 days
  mental state, activity condition and hemogram: no apparent abnormal phenomenon
[2]; 0.5 g daily, 13-day courses, 1-3 courses
  pathologic examination of the myocardium: no obvious change
[3]
  blood flow capacity of the coronary artery: increases
  heart rate: slowdown of cat's heart rate emerges
[4]
  calcium-antagonism effect: no calcium-antagonism effect
  right atrial spontaneous frequency: clearly slows down
[5]
  gastrointestinal absorption: easier to be absorbed by the gastrointestinal tract
[6]; 18.75 mg/kg
  heart rate: heart rate slows down clearly
[6]; i.v.
  arrhythmia caused by aconitine, barium chloride and ligation of coronary artery: significantly able to resist the arrhythmia
[7]
  LD50: 297 ± 18 mg/kg

## O=c1c(-c2ccc(O)cc2)coc2cc(O)ccc12 [puerarin aglycone]
[8]
  lowering of left ventricular function index: 14.3%

## C[C@H]1COC2=C1C(=O)C(=O)c1c2ccc2c1CCCC2(C)C [latent Tanshinone]
[9]; rat, in vivo
  transformation in the liver: can transform into Tanshinone IIA

## Tanshinone
[9]; duodenal administration
  time of peak of bile excretion: about 3 hours
  time until Tanshinone is found in the bile: in about an hour
